Test results: US6117841A, “Substituted peptidylamine calcium channel blockers” (Warner-Lambert Company, priority 1999, dated 2000)
Where two headings read alike, the source gives them in different places.

Molecular target: T1, N-type Ca^2+ Channel (Homo sapiens, UniProt Q00975)
T1 construct: host or cells: IMR-32 cells differentiated with dibutyryl cAMP and bromodeoxyuridine
Assay: Measurement of N-type Ca2+ channel blocking potencies in IMR-32 cells using the fluorescent Ca2+ indicator Indo-1
Type: cell-based
Conditions: IMR-32 cells
Method in brief: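 IMR-32 cells were differentiated 7–13 days (1 mM dibutyryl cAMP, 2.5 µM BrdU) and Indo-1-loaded. They were preincubated 10 min at 30 °C with compound and 5 µM nitrendipine in HEPES/Tris pH 7.4 HBSS with 0.5% BSA, then KCl/CaCl2-depolarized. The peak-minus-basal 400/490 nm emission ratio gave IC50 by four-parameter logistic fit.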

[1] = 5 μM nitrendipine, Examples 116-140, read-out: IMR 32% of Blockade @
[2] = K+ depolarization, 5 μM nitrendipine to block L-type channels, read-out: IMR 32 IC50

T1 sequence (Q00975 whole entry): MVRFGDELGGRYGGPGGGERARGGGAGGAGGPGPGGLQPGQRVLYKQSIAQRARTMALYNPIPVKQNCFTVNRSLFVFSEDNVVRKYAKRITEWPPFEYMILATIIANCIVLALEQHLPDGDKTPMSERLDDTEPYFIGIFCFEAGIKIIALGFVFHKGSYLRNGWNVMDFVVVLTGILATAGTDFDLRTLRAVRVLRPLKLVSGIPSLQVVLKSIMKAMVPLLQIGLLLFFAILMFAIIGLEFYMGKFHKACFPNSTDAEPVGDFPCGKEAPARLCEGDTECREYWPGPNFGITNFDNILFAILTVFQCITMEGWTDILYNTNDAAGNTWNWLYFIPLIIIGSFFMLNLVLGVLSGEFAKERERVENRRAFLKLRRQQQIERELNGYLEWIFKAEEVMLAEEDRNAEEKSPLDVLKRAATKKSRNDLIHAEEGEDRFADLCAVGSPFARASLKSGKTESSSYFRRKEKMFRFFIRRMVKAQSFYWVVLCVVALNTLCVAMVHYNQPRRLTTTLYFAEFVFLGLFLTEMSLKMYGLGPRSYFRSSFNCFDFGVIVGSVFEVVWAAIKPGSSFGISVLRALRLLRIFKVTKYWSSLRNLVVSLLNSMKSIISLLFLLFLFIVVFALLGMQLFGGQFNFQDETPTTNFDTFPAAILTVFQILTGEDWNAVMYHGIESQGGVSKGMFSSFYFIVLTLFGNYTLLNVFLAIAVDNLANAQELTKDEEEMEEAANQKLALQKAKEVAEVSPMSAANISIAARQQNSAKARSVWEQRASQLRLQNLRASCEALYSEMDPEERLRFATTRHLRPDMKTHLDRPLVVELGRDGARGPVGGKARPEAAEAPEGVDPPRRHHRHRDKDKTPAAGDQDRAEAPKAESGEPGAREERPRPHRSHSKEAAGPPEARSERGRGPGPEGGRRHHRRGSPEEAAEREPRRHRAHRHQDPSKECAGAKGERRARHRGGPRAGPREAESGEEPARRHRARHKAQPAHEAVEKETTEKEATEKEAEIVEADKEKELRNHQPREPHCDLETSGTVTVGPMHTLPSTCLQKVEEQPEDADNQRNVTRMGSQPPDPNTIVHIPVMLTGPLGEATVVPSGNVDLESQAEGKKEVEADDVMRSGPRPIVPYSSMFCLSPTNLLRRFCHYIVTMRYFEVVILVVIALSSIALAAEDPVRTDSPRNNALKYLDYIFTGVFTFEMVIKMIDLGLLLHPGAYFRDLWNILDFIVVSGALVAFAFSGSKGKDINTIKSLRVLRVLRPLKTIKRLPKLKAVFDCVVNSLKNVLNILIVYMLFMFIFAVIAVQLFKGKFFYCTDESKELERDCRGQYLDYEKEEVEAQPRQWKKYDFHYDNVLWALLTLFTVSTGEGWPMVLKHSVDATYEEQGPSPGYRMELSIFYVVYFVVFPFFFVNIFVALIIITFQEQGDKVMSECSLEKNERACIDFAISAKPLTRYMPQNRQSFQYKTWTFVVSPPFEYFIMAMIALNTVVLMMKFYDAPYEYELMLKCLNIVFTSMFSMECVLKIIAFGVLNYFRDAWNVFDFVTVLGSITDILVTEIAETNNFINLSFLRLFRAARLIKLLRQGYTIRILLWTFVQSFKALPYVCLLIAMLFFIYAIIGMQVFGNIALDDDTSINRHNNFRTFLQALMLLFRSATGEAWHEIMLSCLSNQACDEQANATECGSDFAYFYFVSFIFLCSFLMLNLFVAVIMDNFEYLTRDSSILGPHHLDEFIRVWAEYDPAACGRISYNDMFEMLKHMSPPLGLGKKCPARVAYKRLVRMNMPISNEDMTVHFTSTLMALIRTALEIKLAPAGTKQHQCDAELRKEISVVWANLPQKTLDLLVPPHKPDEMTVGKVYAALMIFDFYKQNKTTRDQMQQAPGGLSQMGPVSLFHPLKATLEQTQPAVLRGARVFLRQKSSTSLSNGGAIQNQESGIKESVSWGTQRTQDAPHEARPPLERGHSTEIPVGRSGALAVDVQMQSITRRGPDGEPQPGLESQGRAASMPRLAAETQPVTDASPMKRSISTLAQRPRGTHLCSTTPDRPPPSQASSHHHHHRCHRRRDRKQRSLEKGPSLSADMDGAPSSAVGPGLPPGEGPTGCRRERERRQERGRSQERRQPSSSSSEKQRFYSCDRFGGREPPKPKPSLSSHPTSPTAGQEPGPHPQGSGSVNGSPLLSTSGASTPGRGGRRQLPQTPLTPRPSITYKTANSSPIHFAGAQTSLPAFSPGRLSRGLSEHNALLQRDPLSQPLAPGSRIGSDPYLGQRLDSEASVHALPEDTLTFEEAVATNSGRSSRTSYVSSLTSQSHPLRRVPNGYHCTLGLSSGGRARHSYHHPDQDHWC
T1 sequence (P54284 whole entry partner): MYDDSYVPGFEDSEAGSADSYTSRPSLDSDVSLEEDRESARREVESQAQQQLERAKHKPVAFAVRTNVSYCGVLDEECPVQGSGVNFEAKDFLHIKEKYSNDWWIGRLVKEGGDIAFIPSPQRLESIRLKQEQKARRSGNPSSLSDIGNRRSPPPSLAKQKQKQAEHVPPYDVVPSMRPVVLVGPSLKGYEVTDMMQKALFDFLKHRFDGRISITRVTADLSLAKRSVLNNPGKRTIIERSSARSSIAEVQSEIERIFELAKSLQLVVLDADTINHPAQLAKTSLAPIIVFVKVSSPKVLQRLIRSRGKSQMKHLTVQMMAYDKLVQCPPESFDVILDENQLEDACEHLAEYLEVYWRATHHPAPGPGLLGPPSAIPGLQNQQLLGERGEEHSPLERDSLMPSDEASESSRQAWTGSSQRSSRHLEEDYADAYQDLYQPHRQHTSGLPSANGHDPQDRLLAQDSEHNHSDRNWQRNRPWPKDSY
T1 sequence (P54289 25-946 partner limits assumed): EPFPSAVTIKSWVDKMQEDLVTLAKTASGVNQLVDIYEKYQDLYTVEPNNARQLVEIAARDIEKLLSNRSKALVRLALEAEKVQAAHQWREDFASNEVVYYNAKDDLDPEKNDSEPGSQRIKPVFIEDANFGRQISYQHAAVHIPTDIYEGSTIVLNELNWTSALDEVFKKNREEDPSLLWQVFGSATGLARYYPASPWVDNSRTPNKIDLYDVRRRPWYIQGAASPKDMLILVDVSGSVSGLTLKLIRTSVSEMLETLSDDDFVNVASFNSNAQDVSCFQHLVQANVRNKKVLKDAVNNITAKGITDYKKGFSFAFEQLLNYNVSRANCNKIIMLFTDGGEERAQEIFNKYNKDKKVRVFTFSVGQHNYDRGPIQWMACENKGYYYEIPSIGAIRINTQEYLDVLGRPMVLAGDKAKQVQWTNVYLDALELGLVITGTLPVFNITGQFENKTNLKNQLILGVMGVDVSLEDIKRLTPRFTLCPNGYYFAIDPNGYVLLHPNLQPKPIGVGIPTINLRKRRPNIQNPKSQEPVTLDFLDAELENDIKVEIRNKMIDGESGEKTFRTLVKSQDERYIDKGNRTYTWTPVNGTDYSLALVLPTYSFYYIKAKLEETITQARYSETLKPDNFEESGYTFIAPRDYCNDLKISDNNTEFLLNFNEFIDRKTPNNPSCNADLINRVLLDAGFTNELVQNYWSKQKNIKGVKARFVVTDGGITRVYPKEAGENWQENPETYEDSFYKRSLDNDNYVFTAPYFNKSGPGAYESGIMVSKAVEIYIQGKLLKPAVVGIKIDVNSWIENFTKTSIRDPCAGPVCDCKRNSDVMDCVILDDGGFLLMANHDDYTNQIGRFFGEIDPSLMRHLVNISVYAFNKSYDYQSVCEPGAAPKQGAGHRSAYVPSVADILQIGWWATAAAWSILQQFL
T1 sequence (P54289 947-1103 partner limits assumed): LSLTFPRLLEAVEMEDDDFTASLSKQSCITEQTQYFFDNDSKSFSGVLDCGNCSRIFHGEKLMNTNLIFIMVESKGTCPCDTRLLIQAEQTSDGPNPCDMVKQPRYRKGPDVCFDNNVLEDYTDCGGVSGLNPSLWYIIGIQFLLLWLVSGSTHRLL

Row | IC50 [2] [nM] | Compound | also measured
1 | – | CC(C)CCN(C)[C@@H](CC(C)C)C(=O)N[C@@H](Cc1ccc(OCc2ccccc2)cc1)C(=O)NCCN1CCCCC1 (relative stereo) [Example 117, [S-(R*,R*)]-4-Methyl-2-[methyl-(3-methylbutyl)-amino]-pentanoic acid [2-(4-benzyloxy-phenyl)-1-(2-piperidin-1-yl-ethylcarbamoyl)-ethyl]-amide] | IC50 [1]: 640 nM
2 | 1000 | CC(C)C[C@@H](C(=O)N[C@@H](Cc1ccc(OCc2ccccc2)cc1)C(=O)NC(C)(C)C)N(C)Cc1ccc[nH]1 (relative stereo) [Example 89, [S-(R*,R*)]-4-Methyl-2-[methyl-(1H-pyrrol-2-ylmethyl)-amino]-pentanoic acid [2-(4-benzyloxy-phenyl)-1-tert-butylcarbamoyl-ethyl]-amide] | –
3 | 1100 | CC(C)C[C@@H](C(=O)N[C@@H](Cc1ccc(OCc2ccccc2)cc1)C(=O)NCCNCc1ccccc1)N1CCOCC1 (relative stereo) [Example 68, [S-(R*,R*)]-4-Methyl-2-morpholin4-yl-pentanoic acid [1-(2-benzylamino-ethylcarbamoyl)-2-(4-benzyloxy-phenyl)-ethyl]-amide] | –
4 | 380 | CC(C)C[C@@H](C(=O)N[C@@H](Cc1ccc(OCc2ccccc2)cc1)C(=O)NC(C)(C)C)N(C)CC(C)C (relative stereo) [Example 42, [S-(R*,R*)]-2-(Isobutyl-methyl-amino)-4-methyl-pentanoic acid [2-(4-benzyloxy-phenyl)-1-tert-butylcarbamoyl-ethyl]-amide] | –
5 | – | CC(C)CCN(C)[C@@H](CC(C)C)C(=O)N[C@@H](Cc1ccc(OCc2ccccc2)cc1)C(=O)NCCN1CCCCC1 (relative stereo) [Example 9, [S-(R*,R*)]-4-Methyl-2-[methyl-(3-methyl-butyl)-amino]-pentanoic acid [2-(4-benzyloxy-phenyl)-1-(2-piperidin-1-yl-ethylcarbamoyl)-ethyl]-amide] | IMR 32 % of Blockade @ 1 μM (5 μM nitrendipine): 60%; IMR 32 % of Blockade @ 10 μM (5 μM nitrendipine): 89%
6 | – | CC(C)CCN(C)[C@@H](CC(C)C)C(=O)N[C@@H](Cc1ccc(OCc2ccccc2)cc1)C(=O)NCCCN1CCCC1=O (relative stereo) [Example 118, [S-(R*,R*)]-4-Methyl-2-[methyl-(3-methyl-butyl)-amino]-pentanoic acid {2-(4-benzyloxy-phenyl)-1-[3-(2-oxo-pyrrolidin-1-yl)-propylcarbamoyl]-ethyl}-amide] | IC50 [1]: 1900 nM
7 | 2100 | CC(C)C[C@H](NC1CCOCC1)C(=O)N[C@@H](Cc1ccc(OCc2ccccc2)cc1)C(=O)N1CCCCC1 (relative stereo) [Example 79, [S-(R*,R*)]-4-Methyl-2-(tetrahydro-pyran-4-ylamino)-pentanoic acid [1-(4-benzyloxy-benzyl)-2-oxo-2-piperidin-1-yl-ethyl]-amide] | –
8 | – | CC(C)CCN(C)[C@@H](CC(C)C)C(=O)N[C@@H](Cc1ccc(OCc2ccccc2)cc1)C(=O)NC1CCN(Cc2ccccc2)CC1 (relative stereo) [Example 11, [S-(R*,R*)]-4-Methyl-2-[methyl-(3-methyl-butyl)-amino]-pentanoic acid [2-(4-benzyloxy-phenyl)-1-(1-benzyl-piperidin-4-ylcarbamoyl)-ethyl]-amide] | IMR 32 % of Blockade @ 1 μM (5 μM nitrendipine): 70%; IMR 32 % of Blockade @ 10 μM (5 μM nitrendipine): 89%
9 | – | CC(C)C[C@@H](C(=O)N[C@@H](Cc1ccc(OCc2ccccc2)cc1)C(=O)N1CCN(C)CC1)N(C)C1CCCCC1 (relative stereo) [Example 24, [S-(R*,R*)]-2-(Cyclohexyl-methyl-amino)4-methyl-pentanoic acid [1-(4-benzyloxy-benzyl)-2-(4-methyl-piperazin-1-yl)-2-oxo-ethyl]-amide] | IMR 32 % of Blockade @ 1 μM (5 μM nitrendipine): 32%; IMR 32 % of Blockade @ 10 μM (5 μM nitrendipine): 84%
10 | 390 | CC(C)C[C@@H](C(=O)N[C@@H](Cc1ccc(OCc2ccccc2)cc1)C(=O)NC(C)(C)C)N(C)C1CCC(C)CC1 (relative stereo) [Example 39, [S-(R*,R*)]-4-Methyl-2-[methyl-(4-methyl-cyclohexyl)-amino]-pentanoic acid [2-(4-benzyloxy-phenyl)-1-tert-butylcarbamoyl-ethyl]-amide] | –
11 | 100 | CC(C)CC(C(=O)NC(Cc1ccc(NCc2ccccc2)cc1)C(=O)NC(C)(C)C)N(C)Cc1ccc(C(C)(C)C)cc1 (stereo not drawn) [Example 55, [S-(R*,R*)]-2-[(4-tert-Butyl-benzyl)-methyl-amino]-4-methyl-pentanoic acid [2-(4-benzylamino-phenyl)-1-tert-butylcarbamoyl-ethyl]-amide] | –
12 | – | CC(C)C[C@@H](C(=O)N[C@@H](Cc1ccc(OCc2ccccc2)cc1)C(=O)NC(C)CO)N(C)C (relative stereo) [Example 136, [S-(R*,R*)]-2-Dimethylamino-4-methyl-pentanoic acid [2-(4-benzyloxy-phenyl)-1-(2-aminopropan-1-olcarbamoyl)-ethyl]-amide] | IC50 [1]: 3600 nM
13 | 1300 | CC(C)C[C@@H](C(=O)N[C@@H](Cc1ccc(OCc2ccccc2)cc1)C(=O)NC1CCN(Cc2ccccc2)C1)N1CCOCC1 (relative stereo) [Example 69, [S-(R*,R*)]-4-Methyl-2-morpholin-4-yl-pentanoic acid [2-(4-benzyloxy-phenyl)-1-(1-benzyl-pyrrolidin-3-ylcarbamoyl)-ethyl]-amide] | –
14 | – | [S-(R*,R*)]-2-Dimethylamino-4-methyl-pentanoic acid [2-(4-benzyloxy-phenyl)-1-(2-hydroxymethylbutan-1-ol)-ethyl]-amide [Example 137] | IC50 [1]: 6200 nM
15 | – | CC(C)C[C@@H](C(=O)N[C@@H](Cc1ccc(OCc2ccccc2)cc1)C(=O)NCCN1CCCC1)N(C)C (relative stereo) [Example 139, [S-(R*,R*)]-2-Dimethylamino-4-methyl-pentanoic acid [2-(4-benzyloxy-phenyl)-1-(2-pyrrolidin-1-yl-ethylcarbamoyl)-ethyl]-amide] | IC50 [1]: 38800 nM
16 | 600 | CC(C)C[C@H](NC1CCOCC1)C(=O)N[C@@H](Cc1ccc(OCc2ccccc2)cc1)C(=O)NC1CCN(Cc2ccccc2)C1 (relative stereo) [Example 76, [S-(R*,R*)]-4-Methyl-2-(tetrahydro-pyran4-ylamino)-pentanoic acid [2-(4-benzyloxy-phenyl)-1-(1-benzyl-pyrrolidin-3-ylcarbamoyl)-ethyl]-amide] | –
17 | 1200 | CC(C)CC(C(=O)NC(Cc1ccc(OCc2ccccc2)cc1)C(=O)N1CCN(C)CC1)N(C)CC1CCCCC1 (stereo not drawn) [Example 30, [S-(R*,R*)]-2-(Cyclohexylmethyl-methyl-amino)-4-methyl-pentanoic acid [1-(4-benzyloxy-benzyl)-2-(4-methyl-piperazin-1-yl)-2-oxo-ethyl]-amide] | –

Row | Compound | IC50 [2] [nM] | also measured
18 | CC(C)CCN(C)CC(=O)NC(Cc1ccc(OCc2ccccc2)cc1)C(=O)NC(C)(C)C (stereo not drawn) [Example 102, [S-(R*,R*)]-3-(4-Benzyloxy-phenyl)-N-tert-butyl-2-{2-[methyl-(3-methyl-butyl)-amino]-acetylamino}-propionamide] | 1600 | –
19 | CC(C)C[C@@H](C(=O)N[C@@H](Cc1ccc(OCc2ccccc2)cc1)C(=O)NC(C)(C)C)N(C)C (relative stereo) [Example 1, [S-(R*,R*)]-2-Dimethylamino-4-methyl-pentanoic acid [2-(4-benzyloxy-phenyl)-1-tert-butylcarbamoyl-ethyl]-amide] | 2300 | –
